Laboratory results: article PMC7465886, “4-(N-Alkyl- and -Acyl-amino)-1,2,4-triazole-3-thione Analogs as Metallo-β-Lactamase Inhibitors: Impact of 4-Linker on Potency and Spectrum of Inhibition” (Biomolecules, 2020)

Key:
[1] = target: T1, CphA (Aeromonas hydrophila, UniProt P26918); test: MBL inhibition, CphA (imipenem hydrolysis); format: biochemical; conditions: read-out: Percentage of Inhibition at 100 μM Inhibitor, CphA
T1 construct: made in house
Protocol: Compounds were prepared as 10 mM solutions in DMSO before dilution with appropriate buffers. Buffers were 25 mM Hepes pH 7.5 for CphA or 25 mM Hepes pH 7.5, 50 µM ZnCl2 for L1. The rates in the absence of inhibitor were not modified by addition of 1% DMSO. CphA and L1 enzymes, purified as previously described, were used at concentrations between 0.2 and 0.8 nM, respectively. The enzyme and the inhibitor (100 µM) were pre-incubated for 30 min in a volume of 495 µL at room temperature. The hydrolysis of a solution of 100 µM imipenem for CphA was monitored by following the absorbance variation at 300 nm using a Specord 50 PLUS spectrophotometer (Analytik Jena, Jena, Germany). For L1, the reporter substrate was nitrocefin (100 µM). The enzyme activity was measured by following the absorbance variation at 482 nm. The substrate hydrolysis was done at 30 °C. The activity was tested by measuring the initial rates in three samples without inhibitor that allowed to determine the percentage of residual β-lactamase activity in the presence of inhibitors. […] The Hanes linearization of the Henri–Michaelis equation was used, and Ki was calculated on the basis of the following equation, v = (Vmax.S)/[S + Km(1 + I/Ki)]. […]

[2] = target: T2, L1 (Stenotrophomonas maltophilia, UniProt P52700); test: MBL inhibition, L1 (nitrocefin hydrolysis); format: biochemical; conditions: 100 μM inhibitor; read-out: Inhibition of L1 (dash)
T2 construct: made in house
Protocol: Compounds were prepared as 10 mM solutions in DMSO before dilution with appropriate buffers. Buffers were 25 mM Hepes pH 7.5 for CphA or 25 mM Hepes pH 7.5, 50 µM ZnCl2 for L1. The rates in the absence of inhibitor were not modified by addition of 1% DMSO. CphA and L1 enzymes, purified as previously described, were used at concentrations between 0.2 and 0.8 nM, respectively. The enzyme and the inhibitor (100 µM) were pre-incubated for 30 min in a volume of 495 µL at room temperature. The hydrolysis of a solution of 100 µM imipenem for CphA was monitored by following the absorbance variation at 300 nm using a Specord 50 PLUS spectrophotometer (Analytik Jena, Jena, Germany). For L1, the reporter substrate was nitrocefin (100 µM). The enzyme activity was measured by following the absorbance variation at 482 nm. The substrate hydrolysis was done at 30 °C. The activity was tested by measuring the initial rates in three samples without inhibitor that allowed to determine the percentage of residual β-lactamase activity in the presence of inhibitors. If the residual activity in the presence of 100 µM inhibitor was <30%, the initial rate conditions were used to study the inhibition in the presence of increasing concentrations of compounds (from 1 to 100 µM) and to determine the competitive inhibition constant Ki. The Hanes linearization of the Henri–Michaelis equation was used, and Ki was calculated on the basis of the following equation, v = (Vmax.S)/[S + Km(1 + I/Ki)]. The assays were performed in triplicates.

[3] = target: T3, VIM-2 (Escherichia coli, UniProt Q5U7L7); test: Isothermal titration calorimetry of binding to VIM-2
T3 construct: made in house; host or cells: E. coli BL21(DE3) derivative, pET-9a
Protocol: ITC titrations were performed on a MicroCal ITC200 (GE-Malvern) equipped with a 200 µL Hastelloy sample cell and an automated 40 µL glass syringe rotating at 1000 rpm. VIM-2 in 10 mM Hepes-NaOH, 0.15 M NaCl, 50 µM ZnSO4, pH 7.5 was diluted to the desired concentration with the same buffer and was brought to a DMSO concentration identical to that of the injected compound. The tested compound was solubilized in DMSO at 20 mM concentration and was diluted to 200 µM with the enzyme buffer, resulting in a final DMSO concentration of 1%.
In a standard experiment, VIM-2 (19 µM) was titrated by one initiating injection (0.5 µL) followed by 19 injections (2 µL) of compound (200 µM) at an interval of 150 s. Dilution heat of compound injections into buffer, at the corresponding DMSO concentration, were subtracted from raw data. The data so obtained were fitted via nonlinear least squares minimization method to determine binding stoichiometry (n), association constant (Ka), and change in enthalpy of binding (∆H°b) using ORIGIN 7 software v.7 (OriginLab, Northampton, MA, USA). In the fitting procedure, the compound concentration was lowered in order to provide n around 1 and to take compound solubility into account under ITC conditions. The Gibbs free energy of binding, ∆G°b, was calculated from Ka (∆G°b = −RT ln Ka) and the entropic term, T∆S°b, was derived from the Gibbs–Helmholtz equation using the experimental ∆H°b value (∆G°b = ∆H°b − T∆S°b).

T2 sequence (P52700 34-290): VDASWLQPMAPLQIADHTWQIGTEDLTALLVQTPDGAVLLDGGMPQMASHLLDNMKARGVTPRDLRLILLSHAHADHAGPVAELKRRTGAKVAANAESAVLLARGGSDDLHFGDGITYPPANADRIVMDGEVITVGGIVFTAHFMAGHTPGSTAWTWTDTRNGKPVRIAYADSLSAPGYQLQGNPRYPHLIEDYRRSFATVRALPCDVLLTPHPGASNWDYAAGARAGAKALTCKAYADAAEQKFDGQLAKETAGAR
T1 sequence (P26918 28-254): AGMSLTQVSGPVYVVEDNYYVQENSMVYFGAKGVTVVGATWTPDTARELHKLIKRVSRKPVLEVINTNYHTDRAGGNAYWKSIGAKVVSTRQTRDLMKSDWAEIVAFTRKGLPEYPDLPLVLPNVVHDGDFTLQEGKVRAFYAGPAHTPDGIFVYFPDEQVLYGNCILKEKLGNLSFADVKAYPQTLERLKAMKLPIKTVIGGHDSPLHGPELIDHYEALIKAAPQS

With O=C(O)c1ccccc1CNn1c(-c2ccccc2)n[nH]c1=S [Compound 1] the inhibition at 100 µM [1] was 60%, the inhibition at 100 µM [2] was < 30% and the Kd [3] was 358 nM. For the same molecule, the Ka ([3]; 25 °C) was 2.8 ± 0.4 µM⁻¹, the “n, stoichiometry of binding” value ([3]; 25 °C) was 1.01 ± 0.01 and the “∆H°b” value ([3]; 25 °C) was -6.3 ± 0.1 kcal/mol. For the same molecule, the “∆G°b” value ([3]; 25 °C, calculated from Ka) was -8.8 kcal/mol and the “T∆S°b” value ([3]; 25 °C, from Gibbs–Helmholtz equation) was 2.5 kcal/mol.
